In patent US20030044413A1, “Methods of limiting apoptosis of cells” (Regents of the University of Minnesota, priority 1998, published 2003):

Experiments:
Hep G2 cells = experiment: FACS analysis of ΔΨm and ROS, Hep G2 cells; assay type: cell-based
Procedure: A ΔΨm and ROS measurement. ΔΨm and ROS production were measured by FACScan (Becton Dickinson) analysis. Freshly isolated rat hepatocytes were cultured for 3 h as described above and then incubated with William's E medium supplemented with either 100 μM DCA, 100 μM UDCA, equal molar amounts of both, or no bile acid (control), for 6 h. Rat hepatocytes were also cultured with either 1% ethanol, 100 μM UDCA, ethanol+UDCA, or no addition (control) for 4 h. HuH-7 cells, Hep G2 cells, and human osteogenic sarcoma Saos-2 cells were incubated with TGF-β1, anti-Fas antibody or okadaic acid, respectively, for 48 h under the same conditions as outlined above. For combination studies, cells were pretreated with UDCA or hyodeoxycholic acid for 60 min prior to addition of DCA, ethanol, TGF-β1, anti-Fas antibody or okadaic acid. Aliquots of 1.0×10^6 cells were incubated for 15 min at 37° C. with 50 nM 3,3′-dihexyloxacarbocyanine iodide [DiOC6(3)], 2 μM dihydroethidium (HE), or 5 μM 2′,7′-dichlorofluorescin diacetate (H2DCFDA; Molecular Probes, Inc. Eugene, Oreg.) and analyzed by cytofluorometry (Cathcart et al., Anal. Biochem., 134, 111-116 (1983); Zamzami et al., J. Exp. Med., 181, 1661-1672 (1 995); Carter et al., J. Leukocyte Biol., 55, 253-258 (1994)).
Rat primary hepatocytes were incubated with 100 μM DCA and 1% ETOH for 6 h and 4 h, respectively; HuH-7 cells with 1 nM TGF-β1 for 48 h; Hep G2 cells with 0.5 μg/ml anti-Fas antibody (CH-11) for 48 h, and Saos-2 cells with 50 nM okadaic acid (OA) for 48 h. In each combination group, cells were pretreated with 100 μM UDCA alone for 60 min prior to addition of the inducer. Aliquots of 1.0×10^6 cells were incubated for 15 min at 37° C. with 5 μM 2′,7′-dichlorofluorescin diacetate (H2DCFDA) and analyzed by cytofluorometry.

[1] = Nuclear bile acid concentration in livers of fed rats; assay type: in vivo, rat
PARP = PARP cleavage in rat hepatocytes; assay type: cell-based; details: pretreatment with UDCA; DCA, TGF-β1 or okadaic acid
Source text: Determination of PARP cleavage. For the determination of PARP cleavage, total protein were separated on a 8% SDS-polyacrylamide electrophoresis gel. Blots were probed with primary polyclonal antibody to PARP (Santa Cruz Biotechnology).

Bax = experiment: Western blot, liver of bile acid fed rats: Bax; assay type: in vivo, rat; details: DCA feeding
Procedure: Animals and Diets. Male 160-175 g Sprague-Dawley rats (Sprague-Dawley, Indianapolis, Ind.), were maintained on a 12 h light-dark cycle and fed standard laboratory chow ad libitum for 3 days. The animals were then transferred to metabolic cages and fed diets of standard laboratory chow supplemented with either no bile acid or 0.4% (wt/wt) DCA, 0.4% UDCA, or a combination of DCA+UDCA (Bio-Serv, Frenchtown, N.J.). On day 10, the animals were sacrificed by exsanguination under ether anesthesia between 9 a.m. and 11 a.m. The livers were removed, rinsed in normal saline, and flash-frozen in liquid nitrogen until western blot analyses of apoptosis-related proteins were performed. All animals received humane care in compliance with the Guide for the Care and Use of Laboratory Animals, prepared by the National Academy of Sciences (NIH Publication No. 86-23, revised 1985).
Western Blot Analysis. Cytoplasmic proteins were isolated from rat liver tissue as described previously (Trembley et al., Cell Growth & Differ., 7, 903-916 (1996)). […] Cytoplasmic and mitochondrial protein concentrations were determined using the Bio-Rad protein assay (Bio-Rad Laboratories). […]
Densitometry. […] Quantitation of the autoradiograms was performed using the NIH Image 1.4 densitometric analysis program.

[2] = inducer CH-11, Hep G2, inhibition by UDCA

Structure (SMILES)	Peroxides Production (%) Inducer + UDCA (Hep G2 cells; 0.5 μg/ml CH-11 48 h, 100 μM UDCA pretreatment 60 min)	inhibition at 100 µM (Hep G2 cells; Homo sapiens, HepG2, inducer CH-11, Hep G2, 100 μM UDCA, read-out: % Inhibition of peroxides production)	Inhibition % Superoxide Anion (Hep G2 cells; [2])	Inhibition % _Ψm (Hep G2 cells; [2])	share of the total nuclear bile acid concentration ([1]; UDCA feeding)	concentration in nuclei relative to cytoplasmic levels ([1]; livers from control and DCA fed rats)	prevention of PARP cleavage (PARP)	increase in mitochondrial-associated Bax (Bax)
C[C@H](CCC(=O)O)[C@H]1CC[C@H]2[C@@H]3[C@@H](O)C[C@@H]4C[C@H](O)CC[C@]4(C)[C@H]3CC[C@]12C [UDCA, ursodeoxycholic acid]	6.2 ± 1.3 %	52.2 ± 14.9%	55.1 ± 10.8 %	63.1 ± 11.9%	91.4%	> 20 fold	60%	–
C[C@H](CCC(=O)O)[C@H]1CC[C@H]2[C@@H]3CC[C@@H]4C[C@H](O)CC[C@]4(C)[C@H]3C[C@H](O)[C@]12C [DCA, deoxycholic acid]	–	–	–	–	–	–	–	4.5 fold
